Results as given in article PMC8347172, “Optimization and Validation of an In Vitro Standardized Glycogen Phosphorylase Activity Assay” (Molecules, 2021).
One block for each molecule: values may come before it.

Columns and labels:
[1] = molecular target: T1, rabbit muscle glycogen phosphorylase a (GPa) (Oryctolagus cuniculus, UniProt P00489); experiment: colorimetric phosphate release assay (BIOMOL Green), glycogen synthesis direction, […] °C, no glucose; type: biochemical
T1 construct: gene PYGM
T1 sequence (P00489 2-843): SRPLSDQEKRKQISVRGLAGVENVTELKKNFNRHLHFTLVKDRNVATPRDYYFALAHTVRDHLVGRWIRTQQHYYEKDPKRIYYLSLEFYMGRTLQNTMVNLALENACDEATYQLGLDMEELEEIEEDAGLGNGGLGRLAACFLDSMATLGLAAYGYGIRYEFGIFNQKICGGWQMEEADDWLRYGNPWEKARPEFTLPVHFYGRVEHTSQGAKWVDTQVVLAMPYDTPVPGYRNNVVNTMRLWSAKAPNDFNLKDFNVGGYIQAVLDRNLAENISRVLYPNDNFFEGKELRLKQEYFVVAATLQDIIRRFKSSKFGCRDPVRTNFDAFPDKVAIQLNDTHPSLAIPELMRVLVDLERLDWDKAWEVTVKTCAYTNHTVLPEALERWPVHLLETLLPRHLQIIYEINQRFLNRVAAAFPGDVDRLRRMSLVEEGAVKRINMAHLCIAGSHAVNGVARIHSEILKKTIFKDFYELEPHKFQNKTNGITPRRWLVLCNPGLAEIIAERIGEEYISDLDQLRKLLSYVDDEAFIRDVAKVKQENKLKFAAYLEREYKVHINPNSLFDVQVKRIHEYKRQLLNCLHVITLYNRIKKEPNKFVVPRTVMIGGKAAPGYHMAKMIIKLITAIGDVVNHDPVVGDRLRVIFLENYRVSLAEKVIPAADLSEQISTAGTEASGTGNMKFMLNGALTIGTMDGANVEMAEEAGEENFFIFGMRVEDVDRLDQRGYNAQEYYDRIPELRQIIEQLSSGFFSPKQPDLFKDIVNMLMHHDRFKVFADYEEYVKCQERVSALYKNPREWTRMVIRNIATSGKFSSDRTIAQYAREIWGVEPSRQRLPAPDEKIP

[2] = molecular target: T1, rabbit muscle glycogen phosphorylase a (GPa); experiment: colorimetric phosphate release assay (BIOMOL Green); percent inhibition at […], […] °C; type: biochemical
[3] = substrate: O=P(O)(O)O[C@H]1O[C@H](CO)[C@@H](O)[C@H](O)[C@H]1O; experiment: purified protein

IC50 [1]: 580 ± 90 nM
Molecule: CN(C)C(=O)[C@H](O)[C@H](Cc1ccccc1)NC(=O)c1cc2cc(Cl)ccc2[nH]1 [CP-91149, 5-chloro-N-[(1S,2R)-3-(dimethylamino)-2-hydroxy-3-oxo-1-(phenylmethyl)propyl]-1H-indole-2-carboxamide]

% inhibition at 100 μM [2]: 40.6 ± 4.5
Molecule: O=c1oc2c(O)c(O)cc3c(=O)oc4c(O)c(O)cc1c4c23 [ellagic acid]

B1: rabbit muscle glycogen phosphorylase a (GPa) (Oryctolagus cuniculus) (protein)
chain: T1 sequence (P00489 2-843)
Km [3]: 0.15 ± 0.03 mM
